Reference: patent publication US9649324B2, “Use of tylvalosin as antiviral agent” (ECO ANIMAL HEALTH LIMITED, priority 2006, dated 2017)

How the values were obtained:
HRT-18 cells = assay: Intracellular accumulation of macrolides in HRT-18 cells; format: in vitro ADME, human; conditions: for intracellular:extracellular ratio: human, 10 μg/mL
Experimental: HRT-18 cells, in 6 cm tissue cultures dishes, were incubated in the presence of 0.5, 5 or 50 μg/mL tylvalosin. After 4 h, two dishes for each tylvalosin concentration and two dishes without antibiotic were removed from the incubator. A sample of medium (about 1 mL) was removed, placed in a labelled Eppendorf tube and stored at −20° C. The rest of the medium was then removed. Each of the cell monolayers was washed twice in PBS, using approximately 5 mL for each wash. The plunger from a 2 mL plastic syringe was used to gently scrape off the cells. PBS (500 μL) was added to the dish and the cells gently removed into this medium, using a micropipette. The sample was then placed in an Eppendorf tube and centrifuged at 8000×g in a bench centrifuge (Biofuge pico, Heraeus instruments) for 13 sec. An obvious cell pellet formed. The supernatant was removed using a micropipette and the cell material was stored at −20° C. in a labelled Eppendorf tube. After approximately 24 h the remaining tissue culture dishes were removed from the incubator and treated as described above for the 4 h samples. All the samples, including the 4 h samples, were then stored at −70° C.
HRT-18 cells were prepared as described above and used at passage 42. Stock solutions of antibiotics (either tylvalosin, tylosin or tilmicosin) were diluted in growth media and 10 μg/mL each antibiotic was added to the confluent cell monolayers. The cells were incubated at 37° C. in a 5% CO2 atmosphere for either 4 h or 24 h. The media and cells were harvested and tested for antibiotic, as described above.
(§1) All the supernatant and cell samples were transported frozen (at approximately −20° C.) to York Bioanalytical Solutions (York, England) for analysis. Briefly, 0.25 g of buffer (RPMI medium containing 10% FCS) was weighed into a polypropylene tube. A 50 μL volume of the appropriate working solution was added to the quality control (QC) samples. Methanol (50 μL) was added to each blank sample used for preparation of calibration standards, recovery samples and reagent blanks. A 2.5 mL volume of 0.1 M phosphate buffer was added to each sample, vortex mixed for approximately 1 min and then centrifuged at 3220×g for 10 min at 4° C.
(§2) For the liquid-liquid clean-up phase, an aliquot (100 μL) of the supernatant was transferred to a polypropylene tube. The pH was adjusted to pH 8-8.5 by the addition of 0.1 M NaOH, and vortex mixed. Ethyl acetate (5 mL) was added and after capping, the whole mixture was shaken for 10 min and then centrifuged at 3220×g for 10 min at 4° C.
(§3) Ammonium acetate (20 mM; pH native)—formic acid, 1000:3, v/v (100 μL) was added to each well in a 2 mL polypropylene collection plate. An aliquot of the ethyl acetate mixture (100 μL) was transferred to the polypropylene collection plate and evaporated under nitrogen (40° C.) until the ethyl acetate was fully evaporated whilst the ammonium acetate remained. Methanol (100 μL) was added to each well, excluding the calibration standards.
(§4) To each well containing a calibration standard, 100 μL of the appropriate calibration working solution was added. Samples were then vortex mixed for at least 10 min and submitted for liquid chromatography with tandem mass spectrometric analysis. The method stated was applicable to the samples of media (and the calibration standards and quality control samples).
(§5) For the cells, the sample tubes were weighed, and 100 μL of acetonitrile was added. The samples were vortex mixed for 10 sec, then centrifuged at 10285×g at 4° C. for 5 min. The sample was transferred to a polypropylene tube. The original sample tube was washed with 0.1 M phosphate buffer (1 mL). This was transferred to the polypropylene tube. A second wash of 1 mL was made, then a final wash of 0.5 mL. The polypropylene tube was now at the same stage as the end of the liquid extraction, but with the cells present rather than media. This was then taken through the sample preparation as described above. […]

[1] = in vivo; cited from earlier work
PRRSV [2] = system: PRRSV
PRRSV [3] = assay: Inhibitors of PRRSV infection added at various times pre and post infection (Example 7); format: cell-based; conditions: for PRRSV spread / initial PRRSV infection (initial site of infection): added 2 or 4 hours after infection
EAV = assay: Sensitivity to chloroquine (Example 8), EAV
[4] = system: equine arteritis virus (EAV); assay: Effect on equine arteritis virus infection (Example 6); format: cell-based
Experimental: Experiments were carried out to determine whether tylvalosin has an effect on equine arteritis virus (EAV).

endosomal pH = assay: Acridine orange assay of endosomal pH (Example 13); format: cell-based; conditions: acridine orange stained endosomes, any cell line
Experimental: Acridine orange is a dye that causes cells to fluoresce green with the exception of acidic compartments (such as endosomes) that appear red—due to the protonation of the dye and quenching of the green fluorescence. A substance that raises the endosomal pH will prevent the appearance of the red fluorescence. The effect of Aivlosin® and other macrolide antibiotics on a the staining of endosomes by acridine orange in number of cells lines was determined (see FIG. 19). An area of cells grown on a glass coverslip is first selected using a DAPI stain. […] This selection procedure helps reduce any bias in the results. The green and red filters on the epifluorescence microscope were then used to examine about 20 cells. The number of red spots (endosome vesicles) in was determined. The average number of Acridine orange stained endosomes was counted.

PRRSV [5] = assay: Effect of macrolides on PRRSV (background statement)
Caco-2 cells = assay: Intracellular accumulation and trans-epithelial transport in polarised Caco-2 cells; format: in vitro ADME, human; conditions: human, Caco-2, 240 min, 10 μg/mL
Experimental: Caco-2 cells were seeded at a density of 0.8×10^6 cells per well of a Transwell Clear filter 6 well plate, 0.4 μm pore size. The cells were incubated with 2 mL medium in both apical and basolateral chambers. This medium was replaced every 2 days for 10-14 days. Transepithelial resistance was measured using Millicell ERS apparatus (Millipore) at day 7, 10 and/or 14 in order to identify when the cells had become polarised. Readings of >1000 Ω were indicative of polarised cells. […]
as §1, §2, §3, §4
(§6) For the cells, the sample tubes were weighed, and 100 μL of acetonitrile was added. The samples were vortex mixed for 10 sec, then centrifuged at 10285×g at 4° C. for 5 min. The sample was transferred to a polypropylene tube. The original sample tube was washed with 0.1 M phosphate buffer (1 mL). This was transferred to the polypropylene tube. A second wash of 1 mL was made, then a final wash of 0.5 mL. The polypropylene tube was now at the same stage as the end of the liquid extraction, but with the cells present rather than media. This was then taken through the sample preparation as described above. The original sample tubes were allowed to dry (i.e. any remaining solvent evaporated off) and were then reweighed to determine the weight of cells in the sample, to allow the concentration per gram of cells to be determined.

[6] = system: VR2332 (US strain of PRRSV); assay: VR2332 (US strain of PRRSV) entry assay in MA104 cells (Example 10); conditions: 4 h pretreatment, moi 10, overnight
LLC-PK1 cells = assay: Intracellular accumulation in pig kidney epithelial cells; format: in vitro ADME; conditions: pig, 75 min, 10 μg/mL
Experimental: LLC-PKI cells in 6 cm^2 plastic tissue culture dishes were incubated with 10 μg/mL of the different macrolides. Cells and medium were harvested as described above at 30, 75 and 120 min.
as §1, §2, §3, §4, §6

[7] = system: chicken white blood cells; assay: Intracellular accumulation in chicken white blood cells; format: in vitro ADME; parameters: intracellular:extracellular ratio, variation during the experimental time period: dose or concentration left out as unconfirmed; conditions: chicken
Experimental: Pig blood was collected in Heparin-coated BD vacutainers (6). 20 mL of blood and 30 mL of phosphate buffered saline (PBS) were mixed in a 50 mL conical centrifuge tube. This was repeated in order to obtain 3 such tubes. The mixtures were centrifuged for 10 min at 2050×g. The white blood cells, together with some red blood cells below, were harvested into a 50 mL conical centrifuge tube. PBS was added to about 50 mL. A 63% solution of Percoll was made as follows: 6.3 mL Percoll (Sigma), 1.0 mL 1.5 M NaCl, 2.7 mL H2O. 10 mL of 63% Percoll was added to each of two 50 mL conical centrifuge tubes. 25 mL of the resuspended white blood cells were carefully layered on top of the each of the Percoll solutions. A sharp interface was produced. The material was centrifuged at 3000×g for 10 min. […] The white blood cells were harvested in PBS (50 mL) and centrifuged at 500×g for 10 min. The cell pellet was resuspended in medium (Glasgow minimum essential medium containing penicillin and streptomycin). A viable cell count was made using trypan blue. The same method used for isolation of pig WBCs was used for the chicken WBCs, with the exception that heparin (100 I.U./mL) was prepared and mixed with an equal volume of chicken whole blood.
All tubes were placed on a rotary mixing machine, at 37° C. Supernatant and cell samples were harvested at the times described in the figure legends. Duplicate samples were used for each antibiotic for each time point.
as §1, §2, §3, §4, §5

CC[C@H]1OC(=O)C[C@@H](OC(C)=O)[C@H](C)[C@@H](O[C@@H]2O[C@H](C)[C@@H](O[C@H]3C[C@@](C)(O)[C@@H](O)[C@H](C)O3)[C@H](N(C)C)[C@H]2O)[C@@H](CC=O)C[C@@H](C)C(=O)/C=C/C(C)=C/C1CO[C@@H]1O[C@H](C)[C@@H](O)[C@@H](OC)[C@H]1OC (stereo partly drawn) [3-acetyltylosin, 3-O-Acetyltylosin]
uptake and accumulation in cells (HRT-18 cells): behave in the same way

CC[C@H]1OC(=O)[C@H](C)[C@@H](O[C@H]2C[C@@](C)(OC)[C@@H](O)[C@H](C)O2)[C@H](C)[C@@H](O[C@@H]2O[C@H](C)C[C@H](N(C)C)[C@H]2O)[C@](C)(O)C[C@@H](C)CN(C)[C@H](C)[C@@H](O)[C@]1(C)O [azithromycin]
transintestinal elimination, share of the total administered dose [1]: 30-35%

CCN(CC)CCCC(C)Nc1ccnc2cc(Cl)ccc12 (stereo not drawn) [chloroquine]
concentration required to inhibit infection (PRRSV [2]): less than 5 μM
concentration required to inhibit infection (FCV): ≥ 200 µM
PRRSV spread (PRRSV [3]): no effect
initial PRRSV infection (initial site of infection) (PRRSV [3]): no effect
initial PRRSV infection (PRRSV [3]; added 4 hours before infection): inhibited
initial PRRSV infection (PRRSV [3]; added at the time of infection): inhibited
concentration required to inhibit infection (EAV): ≥ 50 µM

CN(C)CCCN1c2ccccc2Sc2ccc(Cl)cc21 [chlorpromazine]
PRRSV spread (PRRSV [3]): appeared to prevent spread
initial PRRSV infection (initial site of infection) (PRRSV [3]): showed the initial site of infection
initial PRRSV infection (PRRSV [3]; added 4 hours before infection): inhibited
initial PRRSV infection (PRRSV [3]; added at the time of infection): inhibited

CC[C@H]1OC(=O)[C@H](C)[C@@H](O[C@H]2C[C@@](C)(OC)[C@@H](O)[C@H](C)O2)[C@H](C)[C@@H](O[C@@H]2O[C@H](C)C[C@H](N(C)C)[C@H]2O)[C@](C)(OC)C[C@@H](C)C(=O)[C@H](C)[C@@H](O)[C@]1(C)O [clarithromycin]
transintestinal elimination, share of the total administered dose [1]: about 10%

C=C1[C@@H](C)[C@H]2[C@H](Cc3ccccc3)NC(=O)[C@]23[C@H](OC(C)=O)/C=C/[C@@](C)(O)C(=O)[C@@H](C)C/C=C/[C@H]3[C@@H]1O [cytochalasin D]
PRRSV spread (PRRSV [3]): no spread could be detected
initial PRRSV infection (initial site of infection) (PRRSV [3]): no effect
initial PRRSV infection (PRRSV [3]; added 4 hours before infection): inhibited
initial PRRSV infection (PRRSV [3]; added at the time of infection): inhibited

COC(=O)Nc1nc2ccc(C(=O)c3cccs3)cc2[nH]1 [nocodazole]
EAV infection [4]: not blocked
initial PRRSV infection (initial site of infection) (PRRSV [3]): no effect
initial PRRSV infection (PRRSV [3]; added 4 hours before infection): inhibited
initial PRRSV infection (PRRSV [3]; added at the time of infection): did not inhibit

CC[C@H]1OC(=O)C[C@@H](O)[C@H](C)[C@@H](O[C@@H]2O[C@H](C)[C@@H](O[C@H]3C[C@@](C)(O)[C@@H](O)[C@H](C)O3)[C@H](N(C)C)[C@H]2O)[C@@H](CC=O)C[C@@H](C)C(=O)/C=C/C(C)=C/[C@@H]1CO[C@@H]1O[C@H](C)[C@@H](O)[C@@H](OC)[C@H]1OC [tylosin]
effect on raising the pH in the endosomes (endosomal pH): did not have much effect
effect on PRRSV (PRRSV [5]): no effect
intracellular:extracellular ratio (HRT-18 cells; 4 h): less than 1 fold
intracellular:extracellular ratio (HRT-18 cells; 24 h): less than 1 fold
average intracellular concentration (Caco-2 cells): 1.86 μg/mg cells
basolateral chamber content as average % of the apical chamber value (Caco-2 cells): 0.52%
inhibition of VR2332 infection [6]: not
average intracellular concentration (LLC-PK1 cells): 2.41 μg/mg cells
intracellular:extracellular ratio, variation during the experimental time period [7]: 2.65-4.7 fold
average intracellular concentration ([7]; 15 min, 10 μg/mL): 10.1 μg/mg cells
intracellular concentration ([7]; 60 min, 10 μg/mL): 32.1 μg/mg cells
